Among the test systems are 786-0 renal; A549 NSCLC; HCT-116 colon; HOP-62 NSCLC; HT29 colon; K-562 leukemia; LOX IMVI melanoma; MDA-MB-435; MOLT-4 leukemia; NCI-H460 lung; RPMI-8226 leukemia; SK-MEL-28 melanoma; SN12C renal; SNB-19 CNS; SR leukemia; TK-10 renal; UACC-257 melanoma; HCC-2998 colon.
Common to all, as to assay: growth of human tumour cells (NCI), 48 h

The values below come from PubChem BioAssay (NCI).

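Compound exposure: 48 hours, 5 concentrations, 96-well plates. TGI is the concentration that stops growth completely.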

For `CCOC(=O)C1(C(=O)OCC)C[C@@H](C)[C@@H](O)C1`, the TGI in the assay with 786-0 renal, in the assay on A549 NSCLC, with HCT-116 colon, in the assay on HOP-62 NSCLC, with HT29 colon and with K-562 leukemia was above 100 µM in each case. Besides, the TGI in the assay with LOX IMVI melanoma, with MDA-MB-435, with MOLT-4 leukemia, with NCI-H460 lung, in the assay with RPMI-8226 leukemia and in the assay with SK-MEL-28 melanoma was above 100 µM in each case. The TGI in the assay with SN12C renal, in the assay with SNB-19 CNS, with SR leukemia, in the assay with TK-10 renal and with UACC-257 melanoma was above 100 µM throughout.
As to `C=C(C)[C@@]1(O)CCCC[C@@H]1CC(Sc1ccccc1)Sc1ccccc1`, the TGI in the assay on 786-0 renal is 39.9 µM; in the assay on A549 NSCLC, 34.4 µM; in the assay with HCC-2998 colon, 32.4 µM; with HCT-116 colon it was 30.2 µM; with HOP-62 NSCLC, 35 µM; with HT29 colon, 42.5 µM. In addition, the TGI in the assay with K-562 leukemia is 44.4 µM; with LOX IMVI melanoma, 31.2 µM; with MDA-MB-435, 33 µM; in the assay with MOLT-4 leukemia, 32.5 µM; in the assay with NCI-H460 lung, 29.4 µM; in the assay with RPMI-8226 leukemia, 33.9 µM. The TGI came out at 38.6 µM with SK-MEL-28 melanoma; 32.4 µM in the assay with SN12C renal; 38.3 µM with SNB-19 CNS; 34.8 µM in the assay on SR leukemia; 30 µM with TK-10 renal; 48.7 µM in the assay with UACC-257 melanoma.
For the compound `CCSc1cc2c(cc1O)CC[C@@H]1[C@@H]2CC[C@]2(C)[C@@H](O)CC[C@@H]12`, the TGI was 24.5 µM with 786-0 renal; 15.5 µM in the assay with A549 NSCLC; 27.5 µM with HCC-2998 colon; 32.7 µM in the assay with HCT-116 colon; 30.6 µM in the assay with HOP-62 NSCLC; 23 µM in the assay with HT29 colon. Also, the TGI in the assay with K-562 leukemia was 21 µM; with LOX IMVI melanoma it was 23 µM; with MDA-MB-435, 10.4 µM; with MOLT-4 leukemia, 21.2 µM; with NCI-H460 lung it was 19.2 µM; with RPMI-8226 leukemia, above 100 µM. In addition, the TGI was 28.9 µM with SK-MEL-28 melanoma; 35.1 µM in the assay with SN12C renal; 25.5 µM in the assay with SNB-19 CNS; 62.3 µM in the assay with TK-10 renal; 30.2 µM in the assay with UACC-257 melanoma.
Take `O=C1/C(=C/c2ccco2)N=C2Sc3c(nc[nH]c3=O)N12`: the TGI in the assay on 786-0 renal, in the assay with A549 NSCLC, with HCT-116 colon, in the assay on HOP-62 NSCLC, in the assay with HT29 colon and with K-562 leukemia was above 100 µM throughout. For the same compound, the TGI in the assay on LOX IMVI melanoma, with MDA-MB-435, in the assay on MOLT-4 leukemia, in the assay with RPMI-8226 leukemia, in the assay on SK-MEL-28 melanoma and in the assay with SN12C renal was above 100 µM in each case. Further, the TGI in the assay on SNB-19 CNS, in the assay on TK-10 renal and in the assay on UACC-257 melanoma was above 100 µM in each case.
In the case of `O=C(c1ccccc1)C(c1ccccc1)C1(O)C(=O)Nc2ccc([N+](=O)[O-])cc21` (configuration not stated), the TGI in the assay with 786-0 renal, with A549 NSCLC, in the assay with HCC-2998 colon, with HCT-116 colon, in the assay with HOP-62 NSCLC and in the assay with K-562 leukemia was above 100 µM throughout. Moreover, the TGI with LOX IMVI melanoma, in the assay with MOLT-4 leukemia, with NCI-H460 lung, with RPMI-8226 leukemia, in the assay on SK-MEL-28 melanoma and with SN12C renal was above 100 µM in each case. In addition, the TGI in the assay with SNB-19 CNS and with TK-10 renal was above 100 µM in each case.
`O=C(CC(C(=O)c1cccs1)c1ccsc1)c1ccccc1` (configuration not stated): the TGI was above 100 µM in the assay on 786-0 renal; 66.2 µM in the assay on A549 NSCLC; above 100 µM in the assay on HCC-2998 colon; above 100 µM in the assay on HCT-116 colon; above 100 µM with HOP-62 NSCLC; above 100 µM with HT29 colon. In addition, the TGI with LOX IMVI melanoma, with MDA-MB-435, with MOLT-4 leukemia, with NCI-H460 lung, in the assay with RPMI-8226 leukemia and in the assay with SK-MEL-28 melanoma was above 100 µM each time. Besides, the TGI in the assay on SN12C renal, in the assay with SR leukemia, in the assay with TK-10 renal and in the assay on UACC-257 melanoma was above 100 µM each time.
For the compound `CC(=NNC(=S)Nc1cccc(C)c1)c1cccc(C(C)=NNC(=S)Nc2cccc(C)c2)n1`, the TGI with 786-0 renal is 63.6 µM; with A549 NSCLC it was 87.1 µM; in the assay on HCC-2998 colon it was above 100 µM; with HCT-116 colon, 37.8 µM; in the assay with HOP-62 NSCLC, above 100 µM; in the assay on HT29 colon, above 100 µM. The TGI was above 100 µM in the assay on K-562 leukemia; 85.3 µM in the assay with LOX IMVI melanoma; above 100 µM in the assay with MDA-MB-435; 61.6 µM in the assay with MOLT-4 leukemia; above 100 µM with NCI-H460 lung; above 100 µM with RPMI-8226 leukemia. Moreover, the TGI was above 100 µM in the assay on SK-MEL-28 melanoma; above 100 µM in the assay on SN12C renal; above 100 µM in the assay with SNB-19 CNS; 40.8 µM in the assay with SR leukemia; 61.5 µM in the assay with TK-10 renal; 0.0745 µM in the assay with UACC-257 melanoma.
As to `C/C(CC(=O)Nc1cc(C)ccc1C)=N/N=C(N)N`, the TGI in the assay on 786-0 renal, in the assay with A549 NSCLC, in the assay on HCC-2998 colon, in the assay with HCT-116 colon, in the assay with HOP-62 NSCLC and in the assay with HT29 colon was above 100 µM in each case. The TGI with K-562 leukemia, in the assay with LOX IMVI melanoma, in the assay on MOLT-4 leukemia, with NCI-H460 lung, in the assay with RPMI-8226 leukemia and with SK-MEL-28 melanoma was above 100 µM throughout. For the same compound, the TGI in the assay on TK-10 renal and with UACC-257 melanoma was above 100 µM throughout.
Consider `CCOC(=O)Cn1c(=O)c2nc(SC)sc2n(-c2ccccc2)c1=S`, for which the TGI in the assay on 786-0 renal is 30.9 µM; in the assay on A549 NSCLC, above 100 µM; in the assay with HCC-2998 colon, above 100 µM; in the assay with HCT-116 colon, above 100 µM; with HOP-62 NSCLC it was 57.1 µM; in the assay with HT29 colon, above 100 µM. The TGI is above 100 µM with K-562 leukemia; above 100 µM in the assay with LOX IMVI melanoma; above 100 µM in the assay on MDA-MB-435; above 100 µM in the assay on MOLT-4 leukemia; 99.4 µM in the assay with NCI-H460 lung; above 100 µM with RPMI-8226 leukemia. Moreover, the TGI was above 100 µM with SK-MEL-28 melanoma; above 100 µM in the assay with SN12C renal; 30.6 µM with SNB-19 CNS; above 100 µM with SR leukemia; 60.1 µM in the assay with TK-10 renal; above 100 µM with UACC-257 melanoma.
